Source: patent publication US20180203014A1, “COMPOSITIONS FOR DETECTING CIRCULATING INTEGRIN BETA-3 BIOMARKER AND METHODS FOR DETECTING CANCERS AND ASSESSING TUMOR PRESENCE OR PROGRESSION, CANCER DRUG RESISTANCE AND TUMOR STEMNESS” (The Regents of the University of California, priority 2015, published 2018)
Entries after “also recorded” stand apart in the source; their conditions may differ.

Columns and labels:
[1] = test system: β3-positive cells (FG-β3, MDA-MB231, FG-R); assay: Anchorage independent growth in soft agar, NFkB inhibitors with erlotinib (FIG. 31); assay type: cell-based, human; details: Lenalidomide 2 μM, PS-1145 1 μM, 10 to 15 days; for response of colonies / tumorsphere formation to single agent: β3-positive cells (intrinsic or acquired resistant), each agent alone: erlotinib 0.5 μM; for tumorsphere formation, combination with erlotinib: β3-positive cells, in combination with erlotinib 0.5 μM
Text: Then, the soft agar were stained with crystal violet and the colonies were counted manually.

[2] = test system: panel of human carcinoma cell lines; assay: Tumorsphere assay (Example 2); assay type: cell-based; details: for tumorsphere formation in vitro, combination with erlotinib: β3-positive cells (FG-β3, PANC-1, A549), erlotinib 0.5 μM with lenalidomide 1-2 μM or bortezomib 4 nM; for impact of integrin β3 expression on resistance: β3-negative vs β3-positive cells
Protocol: Tumorsphere assay was performed as previously described (10). […] The media was replaced with fresh inhibitor 2/6 times a week. Survival curves were generated at least with five concentration points.

[3] = test system: subcutaneous β3-positive tumors (FG-β3, FG-R); assay: Subcutaneous β3-positive tumors in mice; details: for tumor growth, monotherapy: lenalidomide 25 mg/kg/day or bortezomib 0.25 mg/kg alone; for tumor growth in vivo, combination with erlotinib: with erlotinib 25 mg/kg/day, lenalidomide 25 mg/kg/day (FG-β3) or bortezomib 0.25 mg/kg (FG-R)
Protocol: FG pancreatic carcinoma cells (1×10^6 tumor cells in 30 μl of PBS) were injected into the pancreas of 6- to 8-week-old male nude mice as previously described (10). Tumors were established for 2-3 weeks (tumor sizes were monitored by ultrasound) before beginning dosing. […] FG pancreatic carcinoma cells (1×10^6 tumor cells in 30 μl of PBS) were injected into the pancreas of 6- to 8-week-old male nude mice as previously described (10). Tumors were established for 2-3 weeks (tumor sizes were monitored by ultrasound) before beginning dosing. […] Tumors were measured every 2-3 days with calipers until they were harvested at day 10,16 or after acquired resistance.
Tumor dimensions are reported as the fold change relative to size of the same tumor on Day 1. Mean±SEM, (A) *P=0.042 using a one way ANOVA test. n=6 mice per group. […] Tumor dimensions are reported as the fold change relative to size of the same tumor on Day 1. *P=0.0134 using a one way ANOVA test. n=8 mice per group.

FG and FG-β3 cells = assay: Tumor sphere formation assay (Example 1); assay type: cell-based, human; details: for effect of αvβ3 expression on drug resistance (tumor sphere formation): FG lacking β3 vs FG-β3, in vitro
Protocol: (§1) Tumor spheres formation assays were performed essentially as described previously^17. […] Colonies were stained with crystal violet and scored with an Olympus SZH10 microscope. Survival curves were generated at least with five concentration points.

[4] = test system: β3-positive and β3-negative tumor cells (FG, PANC-1); assay: Self renewal tumorsphere assay and soft agar assay, 3D (Example 3); assay type: cell-based, human; details: β3 ectopic expression (FG) or knockdown (PANC-1)
Protocol: Tumorsphere assay was performed as previously described. Soft agar formation assays were performed essentially as described previously. […] The media was replaced with fresh inhibitor 2/5 times a week. Survival curves were generated at least with five concentration points. […] Cells were treated with a dose response of gemcitabine, cisplatin, erlotinib, lapatinib and linsitinib. […] Tumor volumes are expressed as mean±SEM. *P<0.05. […] Results are expressed as % tumor weight compared to vehicle control. *P<0.05. […] Data are mean±SE; **P<0.001. […] Scale bar, 50 μm.

PANC-1 cells = assay: Tumor sphere formation assay, knockdown of αvβ3 (Example 1); assay type: cell-based, human
Protocol: as §1, with “previously^17. Briefly, cells were seeded at 1000 to 2000 cells per well and grown for 12 days to 3 weeks.” for “previously^17.”

[5] = test system: orthotopic FG pancreatic tumors; assay: Orthotopic pancreas cancer xenograft model; assay type: in vivo, mice
Protocol: All mouse experiments were carried out in accordance with approved protocols from the UCSD animal subjects committee and with the guidelines set forth in the NIH Guide for the Care and Use of Laboratory Animals. Tumors were generated by injection of FG human pancreatic carcinoma cells (10^6 tumor cells in 30 μL of sterile PBS) into the tail of the pancreas of 6-8 week old male immune compromised nu/nu mice.
Tumors were generated as previously described (JAY).

[6] = test system: H441 human lung adenocarcinoma orthotopic tumors; assay: Orthotopic lung cancer xenograft model; assay type: in vivo, mice
Protocol: FG pancreatic carcinoma cells (1×10^6 tumor cells in 30 μl of PBS) were injected into the pancreas of 6- to 8-week-old male nude mice as previously described (10). Tumors were established for 2-3 weeks (tumor sizes were monitored by ultrasound) before beginning dosing. […] H441 lung adenocarcinoma cells were generated as previously described (21). […] FG pancreatic carcinoma cells (1×10^6 tumor cells in 30 μl of PBS) were injected into the pancreas of 6- to 8-week-old male nude mice as previously described (10). Tumors were established for 2-3 weeks (tumor sizes were monitored by ultrasound) before beginning dosing. […] H441 lung adenocarcinoma cells were generated as previously described (21). […] Tumors were measured every 2-3 days with calipers until they were harvested at day 10,16 or after acquired resistance.

[7] = test system: phosphorylated TBK1 and NF-κB; assay: Immunoblot analysis of RalB effectors in cells grown in suspension and treated with erlotinib; assay type: cell-based, human; details: αvβ3 negative cells, erlotinib 0.5 μM
Protocol: Cells were lysed in either RIPA lysis buffer (50 mM Tris pH 7.4, 100 mM NaCL, 2 mM EDTA, 10% DOC, 10% Triton, 0.1% SDS) or Triton lysis buffer (50 mM Tris pH 7.5, 150 mN NaCl, 1 mM EDTA, 5 mM MgCl2, 10% Glycerol, 1% Triton) supplemented with complete protease and phosphatase inhibitor mixtures (Roche) and centrifuged at 13,000 g for 10 min at 4° C. Protein concentration was determined by BCA assay. 500 μg to 1 mg of protein were immunoprecipitated with 3 μg of anti-integrin αvβ-3 (LM609) overnight at 4° C. following by capture with 25 μl of protein A/G (Pierce). Beads were washed five times, eluted in Laemmli buffer, resolved on NuPAGE 4-12% Bis-Tris Gel (Invitrogen) and immunoblotting was performed with anti-integrin β3 (Santa Cruz), anti-RalB (Cell Signaling Technology), anti KRAS (Santa Cruz). For immunoblot analysis, 25 of protein was boiled in Laemmli buffer and resolved on 8% to 15% gel. […]

[8] = test system: stage IV non-small cell lung cancer; assay: Serial biopsies from NSCLC patients on erlotinib therapy; assay type: in vivo, human
Protocol: All biopsies are from lung or pleural effusion. […] This work was approved by the UCSD Institutional Review Board (IRB).
Immunostaining was performed according to the manufacturer's recommendations (Vector Labs) on […] sections of paraffin-embedded tumors from tumor biopsies from lung cancer patients. Tumor sections were processed as previously described (23) using integrin β3 (Abcam clone EP2417Y). Sections stained with integrin β3 were scored by a H-score according to the staining intensity (SI) on a scale 0 to 3 within the whole tissue section.

[9] = test system: HCC827 human lung cancer cells; assay: Circulating tumor cells from orthotopic HCC827 lung tumors (FIG. 30); assay type: in vivo, mice; details: orthotopic HCC827, 3 months at 25 mg/kg/day
Text: FIG. 30 illustrates data showing integrin β3 (CD61) is a RTKI (Receptor Tyrosine Kinase (RTK) Inhibitor) drug resistance biomarker on the surface of circulating tumor cells; as discussed in detail in Example 2, below.

HCC827 xenograft tumors = HCC827 xenograft tumors treated until acquired resistance; assay type: in vivo, mice; details: erlotinib 12.5 mg/kg/day until acquired resistance
Text: Tumor volumes are expressed as mean±SEM. *P<0.05. […] Results are expressed as % tumor weight compared to vehicle control. *P<0.05. […] Data are mean±SE; **P<0.001. […] Scale bar, 50 μm.

integrin αvβ3 (CD61) = assay: Flow cytometry of αvβ3 after prolonged EGFR TKI exposure in vitro; assay type: cell-based, human; details: FG, Miapaca-2 and other erlotinib sensitive lines, weeks of treatment
Protocol: Human pancreatic (FG, PANC-1, Miapaca-2 (MP2), CFPAC-1, XPA-1, CAPAN-1, BxPc3), breast (MDAMB231, MDAMB468 (MDA468), BT20, SKBR3, BT474), colon (SW480) and lung (A549, H441) cancer cell lines were grown in ATCC recommended media supplemented with 10% fetal bovine serum, glutamine and non-essential amino acids. We obtained FG-β3, FG-D119A mutant and PANC-shβ3 cells as previously described^17. […] Cisplatin was generated from Sigma-Aldrich. Lenalidomide was purchased from LC Laboratories.
200,000 cells, after drug or vehicle treatment, were washed with PBS and incubated for 20 minutes with the Live/Dead reagent (Invitrogen) according to the manufacturer's instruction, then, cells were fixed with 4% paraformaldehyde for 15 min and blocked for 30 min with 2% BSA in PBS. Cells were stained with fluorescent-conjugated antibodies to CD61 (LM609), CD44 (eBioscience), CD24 (eBioscience), CD34 (eBioscience), CD133 (Santa Cruz), CD56 (eBioscience), CD29 (P4C10) and CD49f (eBioscience). All antibodies were used at 1:100 dilutions, 30 minutes at 4° C. After washing several times with PBS, cells were analyzed by FACS.

[10] = test system: subcutaneous A549 xenografts; assay: Subcutaneous A549 xenografts, integrin β3 knockdown; assay type: in vivo, mice; details: A549 shCTRL vs sh β3, erlotinib 25 mg/kg/day, 16 days
Text: (A) Immunoblots showing integrin β3 knockdown efficiency in cells used in FIG. 1. […] Tumor volumes are expressed as mean±SEM. n=8 mice per group. (C) Immunoblots showing expression of indicated proteins of representative tumors. […] (E) Effect of integrin β3 expression on lapatinib, OSI-906, cisplatin and gemcitabine n=3; mean±SEM. (F) Viability assay (CellTiter-Glo assay) of FG and FG-β3 cells grown in suspension in media with or without serum. n=2; mean+SEM. *P<0.05. **P<0.01.
(a) Effect of integrin β3 expression (ectopic expression for FG and integrin β3-specific knockdown for PANC-1) cells on drug treatment response. Cells were treated with a dose response of gemcitabine, cisplatin, erlotinib, lapatinib and linsitinib. […] Tumor volumes are expressed as mean±SEM. *P<0.05. […] Results are expressed as % tumor weight compared to vehicle control. *P<0.05. […] (f) Relative mRNA expression of integrin β3 (ITGB3) in HCC827 vehicle-treated tumors (n=5) or erlotinib-treated tumors (n=7) from (e) after acquired resistance. Data are mean±SE; **P<0.001. […] Scale bar, 50 μm. […] The HCC827 erlotinib-treated tumors have been digested and sorted in two groups: the integrin β3− and the integrin β3+ population.

[11] = systemic erlotinib treatment for 7-8 weeks

Nc1cccc2c1CN(C1CCC(=O)NC1=O)C2=O (racemic) [lenalidomide, (RS)-3-(4-amino-1-oxo-3H-isoindol-2-yl)piperidine-2,6-dione]
response of colonies / tumorsphere formation to single agent [1]: resistant
tumorsphere formation, combination with erlotinib [1]: decreased tumorsphere formation
tumorsphere formation in vitro, combination with erlotinib [2]: decreased tumorsphere formation
tumor growth, monotherapy [3]: failed to impact tumor growth
tumor growth in vivo, combination with erlotinib [3]: completely suppressed tumor growth

C[C@]1(O)C[C@@H](c2nc(-c3ccc4ccc(-c5ccccc5)nc4c3)c3c(N)nccn32)C1 [OSI-906]
effect of αvβ3 expression on drug resistance (tumor sphere formation) (FG and FG-β3 cells): induced resistance
effect of β3 expression on drug response, cells growing in 3D [4]: reduced sensitivity

O=C(Nc1cc(Cl)cc2c1[nH]c1cnccc12)c1cccnc1 [PS-1145]
response of colonies / tumorsphere formation to single agent [1]: resistant
tumorsphere formation, combination with erlotinib [1]: decreased tumorsphere formation

CC(C)C[C@H](NC(=O)[C@H](Cc1ccccc1)NC(=O)c1cnccn1)B(O)O [bortezomib]
tumorsphere formation in vitro, combination with erlotinib [2]: decreased tumorsphere formation
tumor growth, monotherapy [3]: failed to impact tumor growth
tumor growth in vivo, combination with erlotinib [3]: completely suppressed tumor growth

N.N.[Cl][Pt][Cl] [cisplatin]
effect of αvβ3 expression on drug resistance (tumor sphere formation) (FG and FG-β3 cells): failed to protect cells
impact of integrin β3 expression on resistance [2]: did not impact resistance
effect of β3 expression on drug response, cells growing in 3D [4]: did not impact the response

C#Cc1cccc(Nc2ncnc3cc(OCCOC)c(OCCOC)cc23)c1 [erlotinib, N-(3-ethynylphenyl)-6,7-bis(2-methoxyethoxy) quinazolin-4-amine]
response of colonies / tumorsphere formation to single agent [1]: resistant
erlotinib resistance, ligation competent vs incompetent integrin αvβ3 (FG and FG-β3 cells; FG cells transfected with WT β3 or D119A mutant): same degree of erlotinib resistance
effect of αvβ3 expression on drug resistance (tumor sphere formation) (FG and FG-β3 cells): dramatically increased erlotinib resistance
increase in tumor cell sensitivity to erlotinib after knockdown of αvβ3 (PANC-1 cells): 10 fold
erlotinib resistance of orthotopic pancreatic tumors with ectopic β3 expression ([5]; FG vs FG-β3 orthotopic tumors, systemic treatment): dramatically increased erlotinib resistance; also recorded: conferred erlotinib resistance
increase in αvβ3 expression ([5]; orthotopic FG pancreatic tumors, four weeks of erlotinib treatment): 10 fold
EGFR phosphorylation in tumor lysates (immunoblot) ([5]; orthotopic FG tumors after 10 days of erlotinib): suppressed EGFR phosphorylation
time until moribund ([6]; erlotinib 100 mg/kg/day by oral gavage, start 3 weeks after tumor cell injection): ~58 days
development of resistance [6, 11]: developed resistance
integrin αvβ3 expression compared with vehicle-treated tumors [6, 11]: qualitative increase in integrin αvβ3 expression
levels / activation of phosphorylated TBK1 and NF-κB [7]: reduced; also recorded: decreased the activation
erlotinib response ([2]; H1650 cells, wildtype KRAS and mutant EGFR): resistant
erlotinib response ([2]; tumor cell lines with oncogenic KRAS: FG, H441, and CAPAN1): sensitive
disease progression after days of erlotinib therapy ([8]; Patient 1): 920 days
disease progression after days of erlotinib therapy ([8]; Patient 2): 92 days
disease progression after days of erlotinib therapy ([8]; Patient 3): 120 days
initial response ([8]; all 3 patients): partial response
integrin β3 expression in biopsies after vs before erlotinib resistance ([8]; paired lung tumor biopsies, immunohistochemistry): qualitative increase in integrin β3 expression; also recorded: qualitatively higher
αvβ3 (CD61) status of human lung cancer cells detected in the circulation [9]: positive for αvβ3
effect of β3 expression on drug response, cells growing in 3D [4]: reduced sensitivity
integrin β3 expression in erlotinib resistant vs vehicle-treated tumors (HCC827 xenograft tumors): significantly higher
integrin αvβ3 / β3 expression after prolonged erlotinib exposure in vitro (integrin αvβ3 (CD61)): the greater the expression level of αvβ3; also recorded: induction of β3 expression
erlotinib resistance after knockdown of integrin β3 [10]: overcame erlotinib resistance

Nc1ccn([C@@H]2O[C@H](CO)[C@@H](O)C2(F)F)c(=O)n1 [gemcitabine]
effect of αvβ3 expression on drug resistance (tumor sphere formation) (FG and FG-β3 cells): failed to protect cells
impact of integrin β3 expression on resistance [2]: did not impact resistance
effect of β3 expression on drug response, cells growing in 3D [4]: did not impact the response

CS(=O)(=O)CCNCc1ccc(-c2ccc3ncnc(Nc4ccc(OCc5cccc(F)c5)c(Cl)c4)c3c2)o1 [lapatinib]
effect of β3 expression on drug response, cells growing in 3D [4]: reduced sensitivity
